From patent EP0369744B1, “Xanthine derivatives, process for their preparation and pharmaceutical compositions” (SMITHKLINE BEECHAM PHARMA GmbH, priority 1988, dated 1990) come the findings set out here.

The test system of the experiment is gerbils. The experiment in a line: Delayed neuronal death in gerbils after transient forebrain ischaemia. In kind it is in vivo. On the procedure: Ischaemia was produced in adult male gerbils by occlusion of both common carotid arteries for 3 minutes under halothane/nitrous oxide anaesthesia. During surgery the animals were placed upon a warming blanket. The ischaemia led to neuronal degeneration and to disturbed brain function.
Brains were removed 2 weeks later and 12 µm thick coronal slices were examined light microscopically for neuronal degeneration.
Three groups of animals were used: • 1. sham ligated controls • 2. solvent-treated ligated controls • 3. compound-treated ligated animals The compound was administered 1 hour before the ligation period.
Means ± SEM (n) of histopathological score [HPS] which reflects the degree of neuronal damage in the hippocampal CA1 field: 0 = no damaged neurons 1 = mild necrosis 2 = moderate necrosis 3 = severe necrosis 4 = complete necrosis

As to `O=c1c2[nH]cnc2n(CC2CC2)c(=O)n1CC1CC1` [Example 1, 1,3-Di-cyclopropylmethyl xanthine], the “ischaemia induced neuronal degeneration (conclusion)” value is on record as “significantly prevented ischaemia induced neuronal degeneration”.
